In ChEMBL document CHEMBL1201862, “PubChem BioAssay data set” (2004):
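Grown in 96-well plates, cells were treated for 48 hours with each compound at five concentrations. Insufficient inhibition: endpoint recorded as highest concentration tested. GI50 marks 50% less growth.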 Calls of active or inactive are those of the source. Rule as the data show it: active = GI50 up to about 1.1 µM and inactive = higher.

How the values were obtained:
Test in all cases: NCI anticancer screen, dose series, 48 h
NCI-H23 = test system: NCI-H23
T47D = test system: T47D
IGROV-1 = test system: IGROV-1
MDA-MB-435 = test system: MDA-MB-435
TK-10 = test system: TK-10
UO-31 = test system: UO-31
HL-60 = test system: HL-60
NCI/ADR-RES = test system: NCI/ADR-RES
OVCAR-5 = test system: OVCAR-5
OVCAR-3 = test system: OVCAR-3
OVCAR-8 = test system: OVCAR-8
CCRF-CEM = test system: CCRF-CEM
EKVX = test system: EKVX
Hs-578T = test system: Hs-578T
BT-549 = test system: BT-549
SK-OV-3 = test system: SK-OV-3
COLO 205 = test system: COLO 205
ACHN = test system: ACHN
MDA-N = test system: MDA-N
RXF 631 = test system: RXF 631

Measured: GI50

COc1ccc(-c2ncnc(-c3ccc(OC)c(OC)c3)n2)cc1OC
inactive: NCI-H23 > 100 µM | T47D > 100 µM | IGROV-1 > 100 µM | MDA-MB-435 > 100 µM | TK-10 > 100 µM | UO-31 91 µM | HL-60 > 100 µM | NCI/ADR-RES > 100 µM | OVCAR-5 > 100 µM | OVCAR-3 > 100 µM | OVCAR-8 > 100 µM | CCRF-CEM > 100 µM | EKVX > 100 µM | Hs-578T > 100 µM | BT-549 > 100 µM | SK-OV-3 > 100 µM | COLO 205 > 100 µM | ACHN > 100 µM | MDA-N > 100 µM

O=C(NCCCNCCCCNCCCNC(=O)C(F)(F)F)C(F)(F)F
inactive: NCI-H23 > 100 µM | T47D > 100 µM | IGROV-1 > 100 µM | MDA-MB-435 > 100 µM | TK-10 > 100 µM | UO-31 > 100 µM | HL-60 46.1 µM | NCI/ADR-RES > 100 µM | OVCAR-5 > 100 µM | OVCAR-3 > 100 µM | OVCAR-8 > 100 µM | CCRF-CEM > 100 µM | EKVX > 100 µM | Hs-578T > 100 µM | BT-549 > 100 µM | SK-OV-3 > 100 µM | COLO 205 > 100 µM | ACHN > 100 µM | MDA-N > 100 µM

ClC(/N=N/c1ccccc1)=N/Nc1ccccc1
inactive: NCI-H23 > 100 µM | RXF 631 > 100 µM | IGROV-1 > 100 µM | TK-10 21.3 µM | HL-60 > 100 µM | OVCAR-5 > 100 µM | OVCAR-8 > 100 µM | CCRF-CEM > 100 µM | EKVX 96.8 µM | SK-OV-3 > 100 µM | COLO 205 > 100 µM | ACHN 34.8 µM

CN(C)/C=C/c1ccnc2c1C(=O)c1ccccc1C2=O
inactive: NCI-H23 2.48 µM | T47D > 48.4 µM | IGROV-1 12.2 µM | MDA-MB-435 1.35 µM | TK-10 > 92.7 µM | UO-31 7.48 µM | HL-60 10.9 µM | NCI/ADR-RES 19 µM | OVCAR-5 17.3 µM | OVCAR-3 3.74 µM | OVCAR-8 15.5 µM | CCRF-CEM 16.5 µM | EKVX 18.3 µM | Hs-578T 2.78 µM | BT-549 3.59 µM | SK-OV-3 44 µM | COLO 205 24.9 µM | ACHN 6.73 µM | MDA-N 1.32 µM

Nc1nc(SCc2ccccc2[N+](=O)[O-])c2[nH]cnc2n1
inactive: NCI-H23 > 58.1 µM | T47D 23.3 µM | IGROV-1 > 38 µM | MDA-MB-435 36 µM | TK-10 > 34.8 µM | UO-31 > 66.5 µM | HL-60 > 53.6 µM | NCI/ADR-RES 26.7 µM | OVCAR-5 42.3 µM | OVCAR-3 > 70.8 µM | OVCAR-8 > 52.8 µM | CCRF-CEM > 44.8 µM | EKVX > 53.5 µM | Hs-578T 1.93 µM | BT-549 26.2 µM | SK-OV-3 > 71 µM | COLO 205 > 45 µM | ACHN > 57.8 µM | MDA-N 27.9 µM

Oc1c2ccccc2c2c3c(cccc13)N=N2 [SP-600125]
inactive: NCI-H23 23.8 µM | T47D > 100 µM | IGROV-1 11.4 µM | MDA-MB-435 12.8 µM | TK-10 5.93 µM | UO-31 10.5 µM | HL-60 42.1 µM | NCI/ADR-RES 22.6 µM | OVCAR-5 24.4 µM | OVCAR-3 15.3 µM | OVCAR-8 22 µM | CCRF-CEM 16.1 µM | EKVX 20 µM | Hs-578T 55.1 µM | BT-549 30.8 µM | SK-OV-3 21 µM | COLO 205 19.5 µM | ACHN 6.64 µM | MDA-N 15 µM
